Assay results reported in the NIST ThermoML archive (doi:10.1021/acs.jced.6b00269).
Numbers after ± are expanded uncertainties.

Conditions: for viscosity / mass density: 101.33 kPa, Liquid; for viscosity: Cone and plate viscometry; for mass density: Vibrating tube method; for Glass transition temperature: DSC; for Normal melting temperature: Crystal, DTA

SMILES	viscosity (278.15 K) [mPa·s]	viscosity (283.15 K) [mPa·s]	mass density (283.15 K) [kg/m3]	viscosity (288.15 K) [mPa·s]	mass density (288.15 K) [kg/m3]	viscosity (293.15 K) [mPa·s]	mass density (293.15 K) [kg/m3]	mass density (295.15 K) [kg/m3]	viscosity (298.15 K) [mPa·s]	mass density (298.15 K) [kg/m3]	viscosity (303.15 K) [mPa·s]	mass density (303.15 K) [kg/m3]	viscosity (308.15 K) [mPa·s]	mass density (308.15 K) [kg/m3]	viscosity (313.15 K) [mPa·s]	mass density (313.15 K) [kg/m3]	mass density (318.15 K) [kg/m3]	mass density (323.15 K) [kg/m3]	mass density (328.15 K) [kg/m3]	mass density (333.15 K) [kg/m3]	further results
CCCCCCCCCCCCCC[P+](CCCCCC)(CCCCCC)CCCCCC.O=[N+]([O-])c1cn[n-]c1 [trihexyl(tetradecyl)phosphonium 4-nitropyrazolide]	3560 ± 370	2290 ± 220	948.8 ± 4.9	1500 ± 140	945.6 ± 4.9	1020 ± 89	942.3 ± 4.8	941.1 ± 4.8	710 ± 59	939.3 ± 4.8	510 ± 40	936.4 ± 4.8	375 ± 28	933.4 ± 4.8	280 ± 21	930.4 ± 4.7	927.4 ± 4.7	924.5 ± 4.7	921.6 ± 4.7	918.7 ± 4.6	viscosity (318.15 K): 214 ± 15 mPa·s; viscosity (323.15 K): 167 ± 12 mPa·s; viscosity (328.15 K): 133 ± 9 mPa·s; viscosity (333.15 K): 108 ± 7 mPa·s; viscosity (338.15 K): 88 ± 6 mPa·s; mass density (338.15 K): 915.8 ± 4.6 kg/m3; viscosity (343.15 K): 74 ± 5 mPa·s; mass density (343.15 K): 912.8 ± 4.6 kg/m3; mass density (348.15 K): 909.9 ± 4.6 kg/m3; mass density (353.15 K): 907 ± 4.6 kg/m3; Glass transition temperature: -75 ± 2 °C
CCC[n+]1ccn(C)c1C.O=[N+]([O-])c1cn[n-]c1 [1,2-dimethyl-3-propylimidazolium 4-nitropyrazolide]	9610 ± 1100	4500 ± 500	1193 ± 7.7	2270 ± 230	1189.4 ± 7.7	1240 ± 110	1185.6 ± 7.6	1184.3 ± 7.6	722 ± 61	1182.2 ± 7.6	447 ± 35	1178.9 ± 7.6	294 ± 22	1175.5 ± 7.5	200 ± 10	1172.2 ± 7.5	1168.9 ± 7.4	1165.7 ± 7.4	1162.5 ± 7.3	1159.3 ± 7.3	viscosity (318.15 K): 143 ± 10 mPa·s; viscosity (323.15 K): 106 ± 7 mPa·s; viscosity (328.15 K): 81 ± 5 mPa·s; viscosity (333.15 K): 65 ± 4 mPa·s; viscosity (338.15 K): 53 ± 4 mPa·s; mass density (338.15 K): 1156.1 ± 7.3 kg/m3; mass density (343.15 K): 1152.8 ± 7.2 kg/m3; mass density (348.15 K): 1149.6 ± 7.2 kg/m3; mass density (353.15 K): 1146.4 ± 7.1 kg/m3; Glass transition temperature: -50 ± 2 °C
CCCCCCn1cc[n+](C)c1.N#Cc1ccc[n-]1 [1-hexyl-3-methylimidazolium 2-cyanopyrrolide]	1540 ± 140	902 ± 78	1031 ± 5.7	553 ± 45	1027.9 ± 5.7	355 ± 27	1024.9 ± 5.7	1023.6 ± 5.7	239 ± 17	1021.8 ± 5.6	167 ± 12	1018.8 ± 5.6	122 ± 8	1015.8 ± 5.6	91 ± 6	1012.8 ± 5.5	1009.9 ± 5.5	1006.9 ± 5.5	1003.9 ± 5.4	1001 ± 5.4	viscosity (318.15 K): 70 ± 5 mPa·s; viscosity (323.15 K): 55 ± 4 mPa·s; mass density (338.15 K): 998 ± 5.4 kg/m3; mass density (343.15 K): 995.1 ± 5.3 kg/m3; mass density (348.15 K): 992.1 ± 5.3 kg/m3; mass density (353.15 K): 989.1 ± 5.3 kg/m3; Glass transition temperature: -65 ± 2 °C
CCCCCCn1cc[n+](C)c1.O=[N+]([O-])c1cn[n-]c1 [1-hexyl-3-methylimidazolium 4-nitropyrazolide]	3310 ± 340	1810 ± 170	1133.6 ± 7	1040 ± 92	1130 ± 6.9	633 ± 52	1126.6 ± 6.9	1125.3 ± 6.9	407 ± 32	1123.3 ± 6.8	275 ± 20	1120 ± 6.8	192 ± 14	1116.6 ± 6.8	139 ± 10	1113.4 ± 6.7	1110.2 ± 6.7	1107 ± 6.6	1103.8 ± 6.6	1100.6 ± 6.6	viscosity (318.15 K): 102 ± 7 mPa·s; viscosity (323.15 K): 79 ± 5 mPa·s; viscosity (328.15 K): 63 ± 4 mPa·s; viscosity (333.15 K): 51 ± 3 mPa·s; mass density (338.15 K): 1097.4 ± 6.5 kg/m3; mass density (343.15 K): 1094.2 ± 6.5 kg/m3; mass density (348.15 K): 1091.1 ± 6.5 kg/m3; mass density (353.15 K): 1087.9 ± 6.4 kg/m3; Normal melting temperature: 33 ± 2 °C; Glass transition temperature: -56 ± 2 °C
CCCC[P+](CC)(CC)CC.O=[N+]([O-])c1cn[n-]c1 [butyltriethylphosphonium 4-nitropyrazolide]	840 ± 71	551 ± 44	1087.9 ± 6.4	372 ± 28	1084.7 ± 6.4	261 ± 19	1081.5 ± 6.3	1080.3 ± 6.3	189 ± 13	1078.4 ± 6.3	141 ± 10	1075.4 ± 6.3	108 ± 7	1072.4 ± 6.2	85 ± 6	1069.3 ± 6.2	1066.3 ± 6.2	1063.3 ± 6.1	1060.3 ± 6.1	1057.3 ± 6.1	viscosity (318.15 K): 67 ± 4 mPa·s; viscosity (323.15 K): 55 ± 4 mPa·s; mass density (338.15 K): 1054.3 ± 6 kg/m3; mass density (343.15 K): 1051.3 ± 6 kg/m3; mass density (348.15 K): 1048.4 ± 5.9 kg/m3; mass density (353.15 K): 1045.4 ± 5.9 kg/m3; Normal melting temperature: 44 °C
CCCC[S+]1CCCCC1.O=S(=O)([N-]S(=O)(=O)C(F)(F)F)C(F)(F)F [1-butylthianium bis(trifluoromethylsulfonyl)imide]	398 ± 30	279 ± 21		200 ± 10		148 ± 10			112 ± 8		88 ± 6		70 ± 5		57 ± 4						Normal melting temperature: -10 ± 2 °C; Glass transition temperature: -82 ± 2 °C
CCCCCCCCCC[P+](CC)(CC)CC.O=[N+]([O-])c1cn[n-]c1 [decyltriethylphosphonium 4-nitropyrazolide]	1620 ± 150	1030 ± 90	1020 ± 5.6	678 ± 56	1017 ± 5.6	461 ± 36	1013.9 ± 5.6	1012.7 ± 5.5	325 ± 24	1010.9 ± 5.5	236 ± 17	1007.9 ± 5.5	175 ± 12	1004.9 ± 5.5	133 ± 9	1002 ± 5.4	999.1 ± 5.4	996.2 ± 5.4	993.3 ± 5.3	990.4 ± 5.3	viscosity (318.15 K): 104 ± 7 mPa·s; viscosity (323.15 K): 82 ± 5 mPa·s; viscosity (328.15 K): 66 ± 4 mPa·s; viscosity (333.15 K): 54 ± 4 mPa·s; mass density (338.15 K): 987.5 ± 5.3 kg/m3; mass density (343.15 K): 984.6 ± 5.2 kg/m3; mass density (348.15 K): 981.7 ± 5.2 kg/m3; mass density (353.15 K): 978.8 ± 5.2 kg/m3; Normal melting temperature: 11 ± 2 °C; Glass transition temperature: -71 ± 2 °C
CC[P+](CC)(CC)COCCOC.O=S(=O)([N-]S(=O)(=O)C(F)(F)F)C(F)(F)F	84 ± 6	65 ± 4	1373.9 ± 10	51 ± 3	1369.4 ± 10		1364.8 ± 10	1363 ± 10		1360.3 ± 10		1355.7 ± 10		1351.2 ± 10		1346.8 ± 9.9	1342.3 ± 9.8	1337.9 ± 9.8	1333.4 ± 9.7	1329 ± 9.6	mass density (338.15 K): 1324.6 ± 9.6 kg/m3; mass density (343.15 K): 1320.2 ± 9.5 kg/m3; mass density (348.15 K): 1315.8 ± 9.4 kg/m3; mass density (353.15 K): 1311.5 ± 9.4 kg/m3
